Columns and labels:
Acetylcholinesterase = Acetylcholinesterase (Homo sapiens, UniProt P22303); type: functional
[1] = molecular target: T1, Alpha-2A adrenergic receptor (Homo sapiens, UniProt P08913)
T1 sequence (P08913 whole entry): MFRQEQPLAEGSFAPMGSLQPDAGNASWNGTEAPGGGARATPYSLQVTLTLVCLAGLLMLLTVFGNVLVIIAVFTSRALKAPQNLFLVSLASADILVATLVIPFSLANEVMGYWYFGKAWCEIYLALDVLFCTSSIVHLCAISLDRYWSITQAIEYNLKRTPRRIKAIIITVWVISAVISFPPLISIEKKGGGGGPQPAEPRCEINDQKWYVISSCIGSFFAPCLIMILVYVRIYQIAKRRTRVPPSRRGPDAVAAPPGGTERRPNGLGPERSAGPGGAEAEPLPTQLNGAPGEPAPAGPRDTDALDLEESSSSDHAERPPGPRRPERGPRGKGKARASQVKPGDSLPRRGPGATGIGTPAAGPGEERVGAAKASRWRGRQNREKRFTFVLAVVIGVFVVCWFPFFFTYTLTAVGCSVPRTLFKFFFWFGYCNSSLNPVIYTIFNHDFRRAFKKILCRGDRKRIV

[2] = molecular target: Gamma-aminobutyric acid receptor subunit alpha-1 (Rattus norvegicus, UniProt P62813)
Gamma-aminobutyric acid receptor subunit alpha-1, sequence (P62813 whole entry): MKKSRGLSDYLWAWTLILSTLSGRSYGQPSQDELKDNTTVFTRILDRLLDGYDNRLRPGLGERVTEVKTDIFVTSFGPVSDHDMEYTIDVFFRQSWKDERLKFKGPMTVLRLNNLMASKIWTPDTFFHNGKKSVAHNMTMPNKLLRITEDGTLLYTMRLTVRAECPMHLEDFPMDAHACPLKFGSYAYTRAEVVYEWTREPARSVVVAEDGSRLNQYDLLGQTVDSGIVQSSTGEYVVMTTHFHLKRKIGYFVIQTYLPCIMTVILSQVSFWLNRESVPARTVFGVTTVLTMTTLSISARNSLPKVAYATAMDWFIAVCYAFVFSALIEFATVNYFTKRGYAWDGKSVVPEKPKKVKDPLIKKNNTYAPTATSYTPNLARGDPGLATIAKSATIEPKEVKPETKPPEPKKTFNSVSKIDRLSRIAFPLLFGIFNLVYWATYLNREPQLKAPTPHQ

[3] = molecular target: T2, 5-hydroxytryptamine receptor 1A (Homo sapiens, UniProt P08908)
T2 sequence (P08908 whole entry): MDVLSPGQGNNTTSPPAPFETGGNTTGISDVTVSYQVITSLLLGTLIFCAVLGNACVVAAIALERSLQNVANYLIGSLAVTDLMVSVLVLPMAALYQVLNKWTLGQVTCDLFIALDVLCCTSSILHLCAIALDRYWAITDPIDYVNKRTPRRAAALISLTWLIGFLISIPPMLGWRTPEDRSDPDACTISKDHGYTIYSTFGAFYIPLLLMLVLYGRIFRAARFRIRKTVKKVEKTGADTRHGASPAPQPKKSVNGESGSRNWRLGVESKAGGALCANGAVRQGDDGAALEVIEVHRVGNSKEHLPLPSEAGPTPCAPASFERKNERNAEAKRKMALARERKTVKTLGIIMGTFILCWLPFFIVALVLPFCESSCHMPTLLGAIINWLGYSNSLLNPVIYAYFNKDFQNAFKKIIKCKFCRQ

[4] = molecular target: T3, Amine oxidase [flavin-containing] A (Homo sapiens, UniProt P21397); type: functional
T3 sequence (P21397 whole entry): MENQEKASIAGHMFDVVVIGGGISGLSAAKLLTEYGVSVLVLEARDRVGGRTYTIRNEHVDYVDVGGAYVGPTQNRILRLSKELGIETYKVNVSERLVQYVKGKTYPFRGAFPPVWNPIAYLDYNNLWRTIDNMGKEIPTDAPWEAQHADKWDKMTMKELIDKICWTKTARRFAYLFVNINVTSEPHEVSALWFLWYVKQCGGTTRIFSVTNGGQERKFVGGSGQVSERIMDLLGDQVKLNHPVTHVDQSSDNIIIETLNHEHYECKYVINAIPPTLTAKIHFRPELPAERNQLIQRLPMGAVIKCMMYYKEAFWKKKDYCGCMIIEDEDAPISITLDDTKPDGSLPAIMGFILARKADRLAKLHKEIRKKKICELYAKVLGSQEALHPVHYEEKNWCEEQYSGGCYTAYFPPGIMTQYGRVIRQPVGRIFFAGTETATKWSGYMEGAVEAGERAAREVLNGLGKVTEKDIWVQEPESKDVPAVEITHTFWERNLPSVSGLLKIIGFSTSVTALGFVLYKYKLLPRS

D(3) dopamine receptor = D(3) dopamine receptor (Homo sapiens, UniProt P35462)
D(3) dopamine receptor, sequence (P35462 whole entry): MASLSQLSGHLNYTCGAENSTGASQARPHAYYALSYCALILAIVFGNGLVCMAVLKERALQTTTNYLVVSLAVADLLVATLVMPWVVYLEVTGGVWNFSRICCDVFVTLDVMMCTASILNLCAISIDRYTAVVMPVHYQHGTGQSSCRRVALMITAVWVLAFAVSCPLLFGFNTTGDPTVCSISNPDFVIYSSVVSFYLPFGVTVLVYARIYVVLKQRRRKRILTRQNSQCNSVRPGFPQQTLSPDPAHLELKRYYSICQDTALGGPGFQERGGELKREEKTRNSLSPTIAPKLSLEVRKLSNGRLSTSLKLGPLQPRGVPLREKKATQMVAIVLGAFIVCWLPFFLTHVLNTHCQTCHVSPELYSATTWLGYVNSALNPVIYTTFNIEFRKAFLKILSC

D(1A) dopamine receptor = D(1A) dopamine receptor (Homo sapiens, UniProt P21728)
[5] = molecular target: T4, Alpha-1A adrenergic receptor (Homo sapiens, UniProt P35348); type: functional, cell-based
T4 sequence (P35348 whole entry): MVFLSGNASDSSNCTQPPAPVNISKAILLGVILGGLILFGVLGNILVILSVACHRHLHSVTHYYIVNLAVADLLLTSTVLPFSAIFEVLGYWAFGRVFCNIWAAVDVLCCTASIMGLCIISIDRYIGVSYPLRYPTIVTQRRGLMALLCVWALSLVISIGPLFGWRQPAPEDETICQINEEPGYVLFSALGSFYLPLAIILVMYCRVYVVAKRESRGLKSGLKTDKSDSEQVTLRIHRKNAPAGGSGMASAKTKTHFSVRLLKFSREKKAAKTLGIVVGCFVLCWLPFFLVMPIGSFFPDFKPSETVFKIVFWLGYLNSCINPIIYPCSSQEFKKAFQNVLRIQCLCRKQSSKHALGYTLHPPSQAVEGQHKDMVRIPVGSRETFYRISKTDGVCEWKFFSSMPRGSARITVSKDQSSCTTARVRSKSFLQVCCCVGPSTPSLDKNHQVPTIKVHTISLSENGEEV

Histamine H3 receptor = Histamine H3 receptor (Homo sapiens, UniProt Q9Y5N1)
Histamine H3 receptor, sequence (Q9Y5N1 whole entry): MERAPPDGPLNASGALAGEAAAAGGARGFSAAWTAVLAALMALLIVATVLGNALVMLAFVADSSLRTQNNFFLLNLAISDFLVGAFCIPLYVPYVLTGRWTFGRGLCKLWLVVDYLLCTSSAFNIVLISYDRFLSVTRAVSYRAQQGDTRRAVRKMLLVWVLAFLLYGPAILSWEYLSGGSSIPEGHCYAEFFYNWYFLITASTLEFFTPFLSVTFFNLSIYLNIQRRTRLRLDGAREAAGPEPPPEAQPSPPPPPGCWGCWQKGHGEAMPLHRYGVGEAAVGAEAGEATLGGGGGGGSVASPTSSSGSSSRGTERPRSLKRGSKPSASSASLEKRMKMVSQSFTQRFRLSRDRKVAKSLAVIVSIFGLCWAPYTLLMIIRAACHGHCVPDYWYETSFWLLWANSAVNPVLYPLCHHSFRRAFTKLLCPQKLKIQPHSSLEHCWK

[6] = molecular target: 5-hydroxytryptamine receptor 2B (Homo sapiens, UniProt P41595); type: functional, cell-based
5-hydroxytryptamine receptor 2B, sequence (P41595 whole entry): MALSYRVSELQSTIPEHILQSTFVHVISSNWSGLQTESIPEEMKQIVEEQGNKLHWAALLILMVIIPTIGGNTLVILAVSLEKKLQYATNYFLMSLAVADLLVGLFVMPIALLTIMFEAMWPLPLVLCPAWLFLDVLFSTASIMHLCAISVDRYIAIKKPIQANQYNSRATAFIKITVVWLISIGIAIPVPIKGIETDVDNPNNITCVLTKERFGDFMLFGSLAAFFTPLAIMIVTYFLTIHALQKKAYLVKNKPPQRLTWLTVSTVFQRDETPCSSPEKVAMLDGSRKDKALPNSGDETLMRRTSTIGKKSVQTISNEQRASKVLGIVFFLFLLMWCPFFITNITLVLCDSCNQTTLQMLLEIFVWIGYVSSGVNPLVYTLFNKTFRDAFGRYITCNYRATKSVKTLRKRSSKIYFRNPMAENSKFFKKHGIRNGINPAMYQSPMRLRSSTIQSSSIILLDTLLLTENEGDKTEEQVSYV

[7] = molecular target: Sodium-dependent dopamine transporter (Homo sapiens, UniProt Q01959)
Sodium-dependent dopamine transporter, sequence (Q01959 whole entry): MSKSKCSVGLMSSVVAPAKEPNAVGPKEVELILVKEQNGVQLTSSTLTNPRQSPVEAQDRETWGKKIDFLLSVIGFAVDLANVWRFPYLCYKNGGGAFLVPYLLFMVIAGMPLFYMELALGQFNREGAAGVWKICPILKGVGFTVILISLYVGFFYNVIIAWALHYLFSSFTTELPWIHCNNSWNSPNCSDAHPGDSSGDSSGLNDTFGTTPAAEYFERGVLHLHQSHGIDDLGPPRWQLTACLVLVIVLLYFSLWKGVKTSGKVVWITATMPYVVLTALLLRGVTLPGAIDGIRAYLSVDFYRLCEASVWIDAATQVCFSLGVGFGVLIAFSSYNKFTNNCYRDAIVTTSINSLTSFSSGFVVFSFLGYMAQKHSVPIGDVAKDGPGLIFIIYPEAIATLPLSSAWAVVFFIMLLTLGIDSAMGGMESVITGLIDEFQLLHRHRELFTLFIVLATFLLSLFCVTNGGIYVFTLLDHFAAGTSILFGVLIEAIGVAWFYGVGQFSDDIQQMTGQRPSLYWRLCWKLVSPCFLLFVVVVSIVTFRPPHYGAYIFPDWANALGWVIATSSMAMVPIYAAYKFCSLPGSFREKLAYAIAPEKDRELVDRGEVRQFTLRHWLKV

[8] = molecular target: T5, Muscarinic acetylcholine receptor M2 (Homo sapiens, UniProt P08172)
T5 sequence (P08172 whole entry): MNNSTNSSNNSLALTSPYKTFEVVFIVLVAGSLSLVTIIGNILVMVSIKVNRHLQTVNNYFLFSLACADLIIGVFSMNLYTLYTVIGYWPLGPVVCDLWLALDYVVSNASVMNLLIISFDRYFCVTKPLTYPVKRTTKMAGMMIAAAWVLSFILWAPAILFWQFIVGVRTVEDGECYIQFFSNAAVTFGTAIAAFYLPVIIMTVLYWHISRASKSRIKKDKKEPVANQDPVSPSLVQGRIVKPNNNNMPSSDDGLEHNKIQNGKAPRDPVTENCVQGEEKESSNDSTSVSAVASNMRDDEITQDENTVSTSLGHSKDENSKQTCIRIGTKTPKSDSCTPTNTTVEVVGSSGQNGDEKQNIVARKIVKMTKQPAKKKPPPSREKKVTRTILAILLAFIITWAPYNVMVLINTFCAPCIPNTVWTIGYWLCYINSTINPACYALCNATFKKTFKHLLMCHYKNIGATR

Mu-type opioid receptor = Mu-type opioid receptor (Homo sapiens, UniProt P35372)
Mu-type opioid receptor, sequence (P35372 whole entry): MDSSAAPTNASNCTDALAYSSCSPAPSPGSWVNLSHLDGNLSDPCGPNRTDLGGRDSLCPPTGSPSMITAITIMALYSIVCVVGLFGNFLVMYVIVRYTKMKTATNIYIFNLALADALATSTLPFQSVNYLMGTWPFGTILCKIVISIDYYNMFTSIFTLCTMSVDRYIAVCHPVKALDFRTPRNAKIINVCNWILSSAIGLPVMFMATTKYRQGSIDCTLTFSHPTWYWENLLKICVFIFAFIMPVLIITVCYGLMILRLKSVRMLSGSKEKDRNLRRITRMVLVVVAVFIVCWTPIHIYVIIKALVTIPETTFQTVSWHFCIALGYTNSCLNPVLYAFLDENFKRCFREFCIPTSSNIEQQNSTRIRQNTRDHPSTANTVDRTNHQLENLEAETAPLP

[9] = molecular target: Sodium-dependent noradrenaline transporter (Homo sapiens, UniProt P23975)
Sodium-dependent noradrenaline transporter, sequence (P23975 whole entry): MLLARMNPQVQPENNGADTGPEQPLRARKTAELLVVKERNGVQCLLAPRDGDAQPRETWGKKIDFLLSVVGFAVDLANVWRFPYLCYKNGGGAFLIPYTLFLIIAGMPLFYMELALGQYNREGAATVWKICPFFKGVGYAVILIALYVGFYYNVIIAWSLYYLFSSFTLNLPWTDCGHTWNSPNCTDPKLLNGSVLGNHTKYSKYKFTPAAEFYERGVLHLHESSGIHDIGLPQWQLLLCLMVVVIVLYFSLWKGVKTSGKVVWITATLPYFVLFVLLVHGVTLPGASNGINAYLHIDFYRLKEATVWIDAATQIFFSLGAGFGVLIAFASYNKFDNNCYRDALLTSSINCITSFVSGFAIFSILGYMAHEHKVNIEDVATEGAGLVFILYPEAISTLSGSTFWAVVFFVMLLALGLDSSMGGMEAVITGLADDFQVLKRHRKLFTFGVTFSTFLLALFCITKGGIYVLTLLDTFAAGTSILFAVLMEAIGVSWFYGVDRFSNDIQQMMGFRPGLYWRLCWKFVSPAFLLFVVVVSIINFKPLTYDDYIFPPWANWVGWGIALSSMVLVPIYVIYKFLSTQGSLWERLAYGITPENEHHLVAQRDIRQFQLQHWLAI

D(4) dopamine receptor = molecular target: T6, D(4) dopamine receptor (Homo sapiens, UniProt P21917)
T6 sequence (P21917 whole entry): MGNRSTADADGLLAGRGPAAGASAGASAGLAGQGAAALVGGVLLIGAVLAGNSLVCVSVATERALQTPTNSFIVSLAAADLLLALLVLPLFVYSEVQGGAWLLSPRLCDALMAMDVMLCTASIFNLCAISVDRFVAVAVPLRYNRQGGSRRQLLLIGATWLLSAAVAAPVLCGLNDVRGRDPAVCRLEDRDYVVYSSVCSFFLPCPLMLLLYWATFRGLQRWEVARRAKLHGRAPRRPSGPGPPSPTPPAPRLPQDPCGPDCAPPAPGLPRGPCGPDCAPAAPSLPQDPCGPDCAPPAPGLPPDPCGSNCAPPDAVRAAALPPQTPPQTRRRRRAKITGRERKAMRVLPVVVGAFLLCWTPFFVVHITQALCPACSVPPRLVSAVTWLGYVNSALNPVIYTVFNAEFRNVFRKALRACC

[10] = molecular target: Sodium-dependent serotonin transporter (Homo sapiens, UniProt P31645)
Sodium-dependent serotonin transporter, sequence (P31645 whole entry): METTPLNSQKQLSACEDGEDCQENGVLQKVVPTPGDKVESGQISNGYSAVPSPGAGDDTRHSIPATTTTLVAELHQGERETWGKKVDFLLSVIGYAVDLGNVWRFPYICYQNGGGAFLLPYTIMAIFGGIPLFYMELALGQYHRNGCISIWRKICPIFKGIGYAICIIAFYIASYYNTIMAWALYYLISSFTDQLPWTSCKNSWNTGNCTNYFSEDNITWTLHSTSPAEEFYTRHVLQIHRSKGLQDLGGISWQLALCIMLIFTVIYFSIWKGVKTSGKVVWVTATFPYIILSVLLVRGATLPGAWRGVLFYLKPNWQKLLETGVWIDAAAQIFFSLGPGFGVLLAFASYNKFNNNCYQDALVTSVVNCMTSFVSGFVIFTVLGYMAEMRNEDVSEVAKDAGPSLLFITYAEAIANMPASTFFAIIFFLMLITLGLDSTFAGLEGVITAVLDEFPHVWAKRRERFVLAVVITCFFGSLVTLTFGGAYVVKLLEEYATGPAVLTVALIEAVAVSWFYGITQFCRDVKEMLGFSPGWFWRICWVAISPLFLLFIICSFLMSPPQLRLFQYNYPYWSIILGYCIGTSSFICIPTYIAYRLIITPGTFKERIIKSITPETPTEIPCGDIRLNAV

Measured: AC50
Also: assay procedure not described here.

Acetylcholinesterase, sequence (P22303 whole entry): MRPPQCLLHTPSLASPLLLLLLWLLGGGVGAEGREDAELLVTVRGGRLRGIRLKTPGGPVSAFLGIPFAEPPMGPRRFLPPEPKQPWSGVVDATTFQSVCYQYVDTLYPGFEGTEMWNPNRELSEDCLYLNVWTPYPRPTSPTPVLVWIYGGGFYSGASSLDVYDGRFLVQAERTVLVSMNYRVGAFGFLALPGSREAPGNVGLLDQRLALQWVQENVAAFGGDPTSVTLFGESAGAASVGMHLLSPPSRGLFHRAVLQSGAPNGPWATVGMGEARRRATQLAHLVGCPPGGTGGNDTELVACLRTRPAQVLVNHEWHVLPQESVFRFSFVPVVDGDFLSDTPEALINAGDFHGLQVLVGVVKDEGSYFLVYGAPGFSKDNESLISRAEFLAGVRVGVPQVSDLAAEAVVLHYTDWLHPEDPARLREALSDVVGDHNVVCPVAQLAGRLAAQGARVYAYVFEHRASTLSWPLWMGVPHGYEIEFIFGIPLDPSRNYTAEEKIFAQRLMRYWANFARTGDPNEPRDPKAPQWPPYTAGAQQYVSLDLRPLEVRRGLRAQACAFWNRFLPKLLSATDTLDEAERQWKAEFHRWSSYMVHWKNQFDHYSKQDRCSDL

CN1CCCN=C1/C=C/c1cccs1
10.9 µM: Acetylcholinesterase

CC[C@@]1(O)C[C@H](O[C@H]2C[C@H](N(C)C)[C@H](O[C@H]3C[C@H](O)[C@H](O[C@H]4CCC(=O)[C@H](C)O4)[C@H](C)O3)[C@H](C)O2)c2c(cc3c(c2O)C(=O)c2c(O)cccc2C3=O)[C@H]1C(=O)OC [ACLARUBICIN]
not listed: D(4) dopamine receptor | [10]
> 30 µM: all other assays above

CCOC(=O)C1=C(COCCN)NC(C)=C(C(=O)OC)C1c1ccccc1Cl (stereo unspecified) [AMLODIPINE]
> 30 µM: Acetylcholinesterase

CN/C(=N/CCSCc1nc[nH]c1C)NC#N [CIMETIDINE]
> 30 µM: Acetylcholinesterase

CC(C)n1c(/C=C/C(O)CC(O)CC(=O)O)c(-c2ccc(F)cc2)c2ccccc21 (stereo unspecified) [FLUVASTATIN]
> 30 µM: Acetylcholinesterase

O=c1[nH]c2ccccc2n1C1CCN(CCCC(c2ccc(F)cc2)c2ccc(F)cc2)CC1 [PIMOZIDE]
0.0728 µM: D(4) dopamine receptor

CN1CCN(CC(=O)N2c3ccccc3C(=O)Nc3cccnc32)CC1 [PIRENZEPINE]
> 30 µM: [10] | Acetylcholinesterase

Source: ChEMBL document CHEMBL5291721, “A preclinical secondary pharmacology resource illuminates target-adverse drug reaction associations of marketed drugs” (Nat Commun, 2023)
